Results: patent US9492437B2, “Otamixaban for treatment of elderly and renal impaired non-ST elevation myocardial infarction patients” (SANOFI, priority 2009, dated 2016)
Read-outs that look alike come from different tables or passages of the source.

Experiments:
[1] = test system: patients with Unstable angina/Non ST segment Elevation Myocardial infarction; conditions: in vivo
Protocol: The following results are based on a randomized, double-blind triple-dummy trial to compare otamixaban to Unfractionated Heparin+eptifibatide, in patients with Unstable angina/Non ST segment Elevation Myocardial infarction scheduled to undergo an early invasive strategy.
Otamixaban arm: (Bol) 0.080 mg/Kg (I) 0.035 mg/Kg/h or 0.070 mg/Kg/h or 0.105 mg/Kg/h or 0.175 mg/Kg/h
UFH: 60 IU/Kg as IV bolus ([…]) followed by an IV infusion of 12 U/Kg/h (max 1000 IU/h) to maintain a PTT at 1.5 to 2.0 times control and at the time of the PCI additional boluses needed if the ACT is not in the range of 200-250 seconds. NB: In order for the study to be blinded, all aPTTs and ACTs performed in order to adjust Drug B (UFH/placebo) dosing will be performed using an encrypted Hemochron Signature Elite machine (or as a back-up, a local device with a third-party unblinded healthcare professional).
Eptifibatide: a single bolus of 180 mcg/kg followed by an infusion of 2 mcg/kg/min. In patients with CrCl<50 mL/min the infusion rate will be decreased to 1 mcg/kg/min.
Safety: • Non-CABG TIMI significant (Major+Minor) bleeding adjudicated by a blinded Clinical Events Adjudication Committee (CEAC) at Day 7. • Non-CABG TIMI Major bleeding adjudicated by a blinded Clinical Events Adjudication Committee (CEAC) at Day 7. • CABG-related bleeding adjudicated by a blinded Clinical Events Adjudication Committee (CEAC) at Day 7. • TIMI Major Bleeding (Non CABG+CABG) adjudicated by a blinded Clinical Events Adjudication Committee (CEAC) at Day 7. • Adjudicated TIMI Minor bleedings at Day 7 • Adjudicated Thrombotic and non-thrombotic procedural complications during the index PCI (including abrupt or threatened closure, new intracoronary thrombus, side branch closure, distal embolization, noreflow, thrombus in catheter or adherent to guidewire, coronary dissection with decreased flow, difficulty in reaching or crossing lesion, unplanned stent use, suboptimal results, coronary perforation, tamponade). All the above events will be adjudicated by a blinded Independent Adjudication Committee.

[2] = subgroup pharmacokinetic analysis (concentration of otamixaban); type: in vivo, human; conditions: dose 4 (0.140 mg/Kg/h)
[3] = biological target: free factor Xa (Homo sapiens, UniProt P00742); conditions: cited from earlier work
[4] = biological target: factor Xa assembled in the prothrombinase complex (Factor Xa, Factor Va, calcium and phospholipid) (Homo sapiens, UniProt P00742); conditions: cited from earlier work
[5] = test system: thrombosis; conditions: rodent; cited from earlier work
[6] = test system: thrombosis; conditions: canine; cited from earlier work
[7] = test system: thrombosis; conditions: porcine; cited from earlier work
[8] = test system: prothrombin fragments 1+2; conditions: highest dose regimen; cited from earlier work
[9] = biological target: T1, factor Xa (Homo sapiens, UniProt P00742); conditions: patients with stable coronary artery disease taking usual comedication, some with mild renal impairment; cited from earlier work
T1 construct: host or cells: patients (endogenous enzyme)
T1 sequence (P00742 235-488 limits assumed): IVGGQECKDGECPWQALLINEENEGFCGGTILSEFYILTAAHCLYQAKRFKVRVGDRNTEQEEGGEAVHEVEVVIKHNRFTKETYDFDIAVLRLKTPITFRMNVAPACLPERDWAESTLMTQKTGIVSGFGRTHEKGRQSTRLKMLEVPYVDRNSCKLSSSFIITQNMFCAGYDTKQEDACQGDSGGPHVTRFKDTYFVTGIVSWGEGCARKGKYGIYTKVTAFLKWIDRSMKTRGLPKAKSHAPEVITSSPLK
T1 sequence (P00742 41-179 partner limits assumed): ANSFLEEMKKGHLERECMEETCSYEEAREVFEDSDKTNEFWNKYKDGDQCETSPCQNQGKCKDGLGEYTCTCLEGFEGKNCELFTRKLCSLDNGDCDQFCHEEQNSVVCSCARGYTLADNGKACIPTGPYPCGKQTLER

factor Xa assembled in the prothrombinase complex (Factor Xa, Factor Va, calcium and phospholipid), sequence (P00742 235-488 limits assumed): as the sequence (P00742 235-488 limits assumed) above
factor Xa assembled in the prothrombinase complex (Factor Xa, Factor Va, calcium and phospholipid), sequence (P00742 41-179 limits assumed): as the sequence (P00742 41-179 partner limits assumed) above
factor Xa assembled in the prothrombinase complex (Factor Xa, Factor Va, calcium and phospholipid), sequence (P12259 29-737 partner limits assumed): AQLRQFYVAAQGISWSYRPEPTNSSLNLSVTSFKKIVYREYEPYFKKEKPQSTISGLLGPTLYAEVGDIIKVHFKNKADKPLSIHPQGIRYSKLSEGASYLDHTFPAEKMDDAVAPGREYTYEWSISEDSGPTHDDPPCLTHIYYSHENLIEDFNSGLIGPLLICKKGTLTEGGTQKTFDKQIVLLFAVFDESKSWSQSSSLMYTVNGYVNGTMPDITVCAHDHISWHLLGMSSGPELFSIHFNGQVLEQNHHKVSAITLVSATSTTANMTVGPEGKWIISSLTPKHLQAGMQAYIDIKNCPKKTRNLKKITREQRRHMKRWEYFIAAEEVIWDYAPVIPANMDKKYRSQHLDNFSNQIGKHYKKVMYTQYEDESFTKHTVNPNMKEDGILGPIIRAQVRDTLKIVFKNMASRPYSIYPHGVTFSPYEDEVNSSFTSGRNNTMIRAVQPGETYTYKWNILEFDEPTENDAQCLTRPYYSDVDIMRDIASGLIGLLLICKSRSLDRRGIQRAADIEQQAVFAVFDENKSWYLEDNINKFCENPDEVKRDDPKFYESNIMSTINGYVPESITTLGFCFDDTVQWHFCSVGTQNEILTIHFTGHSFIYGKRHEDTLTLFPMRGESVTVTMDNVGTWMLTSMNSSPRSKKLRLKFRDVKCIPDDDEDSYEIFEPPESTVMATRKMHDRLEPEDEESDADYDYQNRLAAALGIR
factor Xa assembled in the prothrombinase complex (Factor Xa, Factor Va, calcium and phospholipid), sequence (P12259 1574-2224 partner limits assumed): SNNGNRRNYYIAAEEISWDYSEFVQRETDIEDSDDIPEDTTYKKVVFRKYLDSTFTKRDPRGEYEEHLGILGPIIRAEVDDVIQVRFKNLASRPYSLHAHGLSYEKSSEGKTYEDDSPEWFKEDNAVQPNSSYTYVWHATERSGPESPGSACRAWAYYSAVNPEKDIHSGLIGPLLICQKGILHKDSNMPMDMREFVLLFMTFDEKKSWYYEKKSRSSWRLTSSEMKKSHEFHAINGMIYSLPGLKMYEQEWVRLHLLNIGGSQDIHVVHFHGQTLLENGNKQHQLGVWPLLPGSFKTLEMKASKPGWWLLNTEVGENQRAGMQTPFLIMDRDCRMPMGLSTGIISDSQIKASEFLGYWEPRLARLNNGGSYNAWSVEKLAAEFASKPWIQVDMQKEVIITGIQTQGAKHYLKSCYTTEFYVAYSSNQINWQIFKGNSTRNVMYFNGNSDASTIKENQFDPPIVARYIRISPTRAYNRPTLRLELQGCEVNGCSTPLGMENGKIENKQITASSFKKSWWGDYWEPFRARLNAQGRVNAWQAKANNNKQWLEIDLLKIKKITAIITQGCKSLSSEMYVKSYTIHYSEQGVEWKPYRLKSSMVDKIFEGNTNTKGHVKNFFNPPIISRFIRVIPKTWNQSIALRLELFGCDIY
free factor Xa, sequence (P00742 235-488 limits assumed): as the sequence (P00742 235-488 limits assumed) above
free factor Xa, sequence (P00742 41-179 limits assumed): as the sequence (P00742 41-179 partner limits assumed) above

rates of TIMI major as compared to UFH+eptifibatide ([1]; 0.105 mg/kg): numerically higher
rates of TIMI minimal as compared to UFH+eptifibatide ([1]; 0.105 mg/kg): numerically higher
rates of TIMI minor (for patients without TIMI major) as compared to UFH+eptifibatide ([1]; 0.105 mg/kg): lower
TIMI significant bleeding ([1]; 0.175 mg/kg): excessive
concentration of otamixaban in patients with renal impairment and in elderly patients [2]: higher concentration
Structure (SMILES): COC(=O)C(Cc1cccc(C(=N)N)c1)[C@@H](C)NC(=O)c1ccc(-c2cc[n+]([O-])cc2)cc1 (mixture of isomers) [Otamixaban, (2R,3R)-2-(3-Carbamimidoyl-benzyl)-3-[4-(1-oxy-pyridin-4-yl)benzoylamino]-butyric acid methyl ester]
bleeding rate among subgroups (age, baseline creatinine clearance, body weight) ([1]; human): did not show any increase of the bleeding rate
inhibition of free factor Xa [3]: inhibited
inhibition of factor Xa assembled in the prothrombinase complex [4]: inhibited
efficacy in models of thrombosis [5]: highly efficacious
efficacy in models of thrombosis [6]: highly efficacious
efficacy in models of thrombosis [7]: highly efficacious
reduction of prothrombin fragments 1+2 versus unfractionated heparin [8]: reduced prothrombin fragments 1+2 significantly more than unfractionated heparin
factor Xa inhibition in patients [9]: dose-dependent, rapid direct factor Xa inhibition
